The results in this text go back to US12552825B2 (Zikani Therapeutics, Inc., priority 2019, dated 2026).

Converted amounts (≈) assume the structure as drawn.

What all share (format): cell-based
For assay [1], the system named is S. aureus MP-12. Briefly: microbe, parasite or virus in culture. Conditions: Staphylococcus aureus, MP12, read-out: MIC S. aureus MP-12.
The test system of assay [2] is E. coli MP-4. The assay is described as follows: MIC determination by CLSI broth dilution, E. coli MP-4. Conditions: Escherichia coli, MP4, CLSI broth dilution; strain MP-4.
In assay [3] the test system is K. pneumoniae MP-546. The assay is described as follows: MIC determination by CLSI broth dilution, K. pneumoniae MP-546. Conditions: Klebsiella pneumoniae, MP546, CLSI broth dilution; strain MP-546.
Assay [4] deals with P. aeruginosa MP-3. The assay is described as follows: MIC determination by CLSI broth dilution, P. aeruginosa MP-3. Conditions: Pseudomonas aeruginosa, MP3, strain MP-3.
The subject of assay [5] is A. baumannii MP-15. Briefly: MIC determination by CLSI broth dilution, A. baumannii MP-15. Conditions: Acinetobacter baumannii, MP15, strain MP-15, read-out: MIC A. baumanii MP-15.

`CO[C@]1(C)C[C@@H](C)CN(C)[C@@H](C(=O)N2CCN(CC(F)(F)F)CC2)[C@H](C)OC(=O)C(C)(C)C(=O)[C@H](C)[C@H]1O[C@@H]1O[C@H](C)C[C@H](N(C)C)[C@H]1O` [Compound 130, (2S,3R,6R,8R,9R,10R)-9-(((2S,3R,4S,6R)-4-(dimethylamino)-3-hydroxy-6-methyltetrahydro-2H-pyran-2-yl)oxy)-8-methoxy-2,4,6,8,10,12,12-heptamethyl-3-(4-(2,2,2-trifluoroethyl)piperazine-1-carbonyl)-1-oxa-4-azacyclotridecane-11,13-dione]: the MIC in assay [1], in assay [2], in assay [3], in assay [4] and in assay [5] was more than 32 µg/mL throughout.
As for `CO[C@]1(C)C[C@@H](C)CN(C)[C@@H](CC2CCN(CC3CCCCC3)CC2)COC(=O)C(C)(C)C(=O)[C@H](C)[C@H]1O[C@@H]1O[C@H](C)C[C@H](N(C)C)[C@H]1O` [Compound 72], the MIC is more than 32 µg/mL in assay [1]; less than 4 µg/mL in assay [2]; 4 to 32 µg/mL (≈ 5.76 to 46.1 µM) in assay [3]; more than 32 µg/mL in assay [4]; more than 32 µg/mL in assay [5].
Regarding `CO[C@]1(C)C[C@@H](C)CN[C@@H](Cc2ccccc2)COC(=O)[C@H](C)C(=O)[C@H](C)[C@H]1O[C@@H]1OC(C)CC(N(C)C)C1O` (some centres unmarked) [Compound 208], the MIC in assay [1] is 4 to 32 µg/mL (≈ 7.11 to 56.9 µM); in assay [2] it was more than 32 µg/mL; in assay [4] it was more than 32 µg/mL; in assay [5] it was more than 32 µg/mL.
With `CC[C@@H]1COC(=O)[C@H](C)C(=O)[C@H](C)[C@@H](OC2OC(C)CC(N(C)C)C2O)[C@](C)(OC)C[C@@H](C)CN1` (some centres unmarked) [Compound 215], the MIC in assay [1], in assay [2], in assay [4] and in assay [5] was more than 32 µg/mL throughout.
With `CO[C@]1(C)C[C@@H](C)CN[C@@H](Cc2c[nH]cn2)COC(=O)[C@H](C)C(=O)[C@H](C)[C@H]1O[C@@H]1OC(C)CC(N(C)C)C1O` (some centres unmarked) [Compound 205], the MIC in assay [1], in assay [2], in assay [4] and in assay [5] was more than 32 µg/mL throughout.
Regarding `CO[C@]1(C)C[C@@H](C)CN[C@H](CC[S+](C)[O-])COC(=O)[C@H](C)C(=O)[C@H](C)[C@H]1O[C@@H]1OC(C)CC(N(C)C)C1O` (some centres unmarked) [Compound 203], the MIC in assay [1], in assay [2], in assay [4] and in assay [5] was more than 32 µg/mL each time.
In the case of `CO[C@]1(C)C[C@@H](C)CN[C@@H](C)COC(=O)[C@H](C)C(=O)[C@H](C)[C@H]1O[C@@H]1OC(C)CC(N(C)C)C1O` (some centres unmarked) [Compound 206], the MIC in assay [1] is more than 32 µg/mL; in assay [2], 4 to 32 µg/mL (≈ 8.22 to 65.8 µM); in assay [4], more than 32 µg/mL; in assay [5] it was more than 32 µg/mL.
With `CO[C@]1(C)C[C@@H](C)CN[C@H](CO)COC(=O)[C@H](C)C(=O)[C@H](C)[C@H]1O[C@@H]1OC(C)CC(N(C)C)C1O` (some centres unmarked) [Compound 204], the MIC in assay [1], in assay [2], in assay [4] and in assay [5] was more than 32 µg/mL in each case.
For the compound `CO[C@]1(C)C[C@@H](C)CN[C@H](CNC2COC2)COC(=O)[C@H](C)C(=O)[C@H](C)[C@H]1O[C@@H]1O[C@H](C)C[C@H](N(C)C)[C@H]1O` [Compound 216], the MIC was more than 32 µg/mL in assay [1], 4 to 32 µg/mL (≈ 7.17 to 57.4 µM) in assay [2], more than 32 µg/mL in assay [4] and more than 32 µg/mL in assay [5].
Take `CO[C@]1(C)C[C@@H](C)CN[C@H](Cn2cc(-c3cccc(N)n3)nn2)COC(=O)[C@H](C)C(=O)[C@H](C)[C@H]1O[C@@H]1O[C@H](C)C[C@H](N(C)C)[C@H]1O` [Compound 219, (3R,6R,8R,9R,10R)-3-((4-(6-aminopyridin-2-yl)-1H-1,2,3-triazol-1-yl)methyl)-9-(((2S,3R,4S,6R)-4-(dimethylamino)-3-hydroxy-6-methyltetrahydro-2H-pyran-2-yl)oxy)-8-methoxy-6,8,10,12-tetramethyl-1-oxa-4-azacyclotridecane-11,13-dione]: the MIC in assay [1], in assay [2], in assay [4] and in assay [5] was more than 32 µg/mL throughout.
As to `CO[C@]1(C)C[C@@H](C)CN[C@H](CCSC)COC(=O)[C@H](C)C(=O)[C@H](C)[C@H]1O[C@@H]1OC(C)CC(N(C)C)C1O` (some centres unmarked) [Compound 202], the MIC in assay [1], in assay [2], in assay [4] and in assay [5] was more than 32 µg/mL in each case.
`CO[C@]1(C)C[C@@H](C)CN[C@@H](Cc2ccc(O)cc2)COC(=O)[C@H](C)C(=O)[C@H](C)[C@H]1O[C@@H]1OC(C)CC(N(C)C)C1O` (some centres unmarked) [Compound 209]: the MIC was 4 to 32 µg/mL (≈ 6.91 to 55.3 µM) in assay [1], more than 32 µg/mL in assay [2], more than 32 µg/mL in assay [4] and more than 32 µg/mL in assay [5].
Turning to `CO[C@]1(C)C[C@@H](C)CN[C@H](C)COC(=O)[C@H](C)C(=O)[C@H](C)[C@H]1O[C@@H]1OC(C)CC(N(C)C)C1O` (some centres unmarked) [Compound 207], the MIC in assay [1], in assay [2], in assay [4] and in assay [5] was more than 32 µg/mL in each case.
Consider `CO[C@]1(C)C[C@@H](C)CN[C@H](CNCc2ccc(F)cn2)COC(=O)[C@H](C)C(=O)[C@H](C)[C@H]1O[C@@H]1O[C@H](C)C[C@H](N(C)C)[C@H]1O` [Compound 217], for which the MIC in assay [1], in assay [2], in assay [4] and in assay [5] was more than 32 µg/mL throughout.
Consider `CO[C@]1(C)C[C@@H](C)CN[C@H](CN)COC(=O)[C@H](C)C(=O)[C@H](C)[C@H]1O[C@@H]1OC(C)CC(N(C)C)C1O` (some centres unmarked) [Compound 221], for which the MIC in assay [1] and in assay [3] was more than 32 µg/mL throughout.
`CO[C@]1(C)C[C@@H](C)CNC(CO)(CO)COC(=O)[C@H](C)C(=O)[C@H](C)[C@H]1O[C@@H]1OC(C)CC(N(C)C)C1O` (some centres unmarked) [Compound 212]: the MIC in assay [1], in assay [2], in assay [4] and in assay [5] was more than 32 µg/mL each time.
For the compound `C=C[C@@H]1COC(=O)[C@H](C)C(=O)[C@H](C)[C@@H](O[C@@H]2OC(C)CC(N(C)C)C2O)[C@](C)(OC)C[C@@H](C)CN1` (some centres unmarked) [Compound 213], the MIC in assay [1], in assay [2], in assay [4] and in assay [5] was more than 32 µg/mL in each case.
Consider `CO[C@]1(C)C[C@@H](C)CN[C@H](CNCCCCCCn2ccnn2)COC(=O)[C@H](C)C(=O)[C@H](C)[C@H]1O[C@@H]1O[C@H](C)C[C@H](N(C)C)[C@H]1O` [Compound 220], for which the MIC in assay [1], in assay [2], in assay [4] and in assay [5] was more than 32 µg/mL each time.
With `CC[C@H]1OC(=O)[C@H](C)C(=O)[C@H](C)[C@@H](O[C@@H]2OC(C)CC(N(C)C)C2O)[C@](C)(OC)C[C@@H](C)CN[C@H]1C` (some centres unmarked) [Compound 210], the MIC in assay [1], in assay [2], in assay [4] and in assay [5] was more than 32 µg/mL each time.
Consider `CC[C@H]1OC(=O)[C@H](C)C(=O)[C@H](C)[C@@H](O[C@@H]2OC(C)CC(N(C)C)C2O)[C@](C)(OC)C[C@@H](C)CN(C)[C@H]1C` (some centres unmarked) [Compound 211], for which the MIC in assay [1], in assay [2], in assay [4] and in assay [5] was more than 32 µg/mL each time.
